What is called Ki is a dissociation constant, usually derived from enzyme kinetics or from competition with a known ligand. Read a high Ki as weaker binding.

Here are results for 63 compounds from ChEMBL document CHEMBL1156471, “Targeting host cell furin proprotein convertases as a therapeutic strategy against bacterial toxins and viral pathogens” (J Biol Chem, 2007).

Non-standard residues stand in square brackets, D forms with d. Residues, ends and D or L forms follow the SMILES beside them. Sar = CNCC(=O)O

Sequence of Furin (P09958 whole entry): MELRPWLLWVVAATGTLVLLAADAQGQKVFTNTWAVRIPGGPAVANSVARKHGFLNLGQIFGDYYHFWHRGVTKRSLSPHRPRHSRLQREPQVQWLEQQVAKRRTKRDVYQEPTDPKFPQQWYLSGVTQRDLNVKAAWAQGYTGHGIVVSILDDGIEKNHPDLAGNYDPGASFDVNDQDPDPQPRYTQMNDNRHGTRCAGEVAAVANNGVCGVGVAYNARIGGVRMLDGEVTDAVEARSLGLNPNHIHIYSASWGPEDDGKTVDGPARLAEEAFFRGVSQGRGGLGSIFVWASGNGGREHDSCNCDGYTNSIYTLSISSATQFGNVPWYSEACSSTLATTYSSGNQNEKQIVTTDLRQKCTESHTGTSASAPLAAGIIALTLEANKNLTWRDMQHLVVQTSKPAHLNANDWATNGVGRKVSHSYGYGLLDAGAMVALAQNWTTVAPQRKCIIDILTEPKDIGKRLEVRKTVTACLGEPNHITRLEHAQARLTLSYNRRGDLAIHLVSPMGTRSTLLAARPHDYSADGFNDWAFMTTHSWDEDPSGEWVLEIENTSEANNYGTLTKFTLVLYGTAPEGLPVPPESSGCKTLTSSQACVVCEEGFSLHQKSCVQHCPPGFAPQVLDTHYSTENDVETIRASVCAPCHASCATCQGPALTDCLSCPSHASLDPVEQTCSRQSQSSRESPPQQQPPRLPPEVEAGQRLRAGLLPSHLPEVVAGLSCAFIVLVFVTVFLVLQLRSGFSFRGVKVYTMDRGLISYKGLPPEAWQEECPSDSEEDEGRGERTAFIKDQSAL

The assay addresses Furin (Homo sapiens, UniProt P09958).
In turn, `C[C@H](NC(=O)[C@H](C)NC(=O)[C@H](CCCNC(=N)N)NC(=O)[C@H](CCCNC(=N)N)NC(=O)[C@H](CCCNC(=N)N)NC(=O)[C@H](CCC(=O)O)NC(=O)[C@H](CCCNC(=N)N)NC(=O)[C@@H]1CCCN1C(=O)[C@@H](N)[C@@H](C)O)C(=O)N[C@@H](CCCNC(=N)N)C(=O)NCC(=O)O` showed an inhibition constant (Ki) above 0.1 µM. `C[C@H](NC(=O)[C@H](CCCCN)NC(=O)[C@H](CCCNC(=N)N)NC(=O)[C@H](CCCNC(=N)N)NC(=O)[C@H](CCCNC(=N)N)NC(=O)[C@H](CCC(=O)O)NC(=O)[C@H](CCCNC(=N)N)NC(=O)[C@@H]1CCCN1C(=O)[C@@H](N)[C@@H](C)O)C(=O)N[C@@H](CCCNC(=N)N)C(=O)N(C)CC(=O)O` (H-TPRERRRKAR[Sar]-OH) returned an inhibition constant (Ki) above 0.1 µM. The value for H-TPQRYRRRKKRG-OH was above 0.1 µM; that for H-TPQRARRRKKRP-OH was above 0.1 µM; that for H-TPRWRRRKKRG-NH2 was above 0.1 µM. As to H-TPRHRRRKKRG-OH, the Ki is above 0.1 µM. In turn, H-TPRRRRRKKRG-OH gave a Ki above 0.1 µM.

Take H-TPRARRRKKRS-NH2: the Ki is above 0.1 µM. The value for `C[C@H](NC(=O)[C@H](C)NC(=O)[C@H](CCCNC(=N)N)NC(=O)[C@H](CCC(=O)O)NC(=O)[C@H](CCCNC(=N)N)NC(=O)[C@@H]1CCCN1C(=O)[C@@H](N)[C@@H](C)O)C(=O)N[C@@H](CCCCN)C(=O)N[C@@H](CCCCN)C(=O)N[C@@H](CCCNC(=N)N)C(=O)N(C)CC(=O)O` (H-TPRERAAKKR[Sar]-OH) was above 0.1 µM.

The compound H-TPRAARRKKRG-OH had an inhibition constant Ki above 0.1 µM. As to H-TARERRRKKRG-OH, the inhibition constant (Ki) was above 0.1 µM. Under H-TPRERRRKARV-OH stands above 0.1 µM. Compound `C[C@H](NC(=O)[C@H](CCCN=C(N)N)NC(=O)[C@H](CCC(N)=O)NC(=O)[C@@H]1CCCN1C(=O)[C@@H](N)[C@@H](C)O)C(=O)N[C@@H](CCCN=C(N)N)C(=O)N[C@@H](CCCN=C(N)N)C(=O)N[C@@H](CCCN=C(N)N)C(=O)N[C@@H](CCCCN)C(=O)N[C@@H](CCCCN)C(=O)N[C@@H](CCCNC(N)=O)C(=O)NCC(=O)O` gave a Ki above 0.1 µM. Under H-GAGAGATPQRARRRKKRW-OH stands 0.127 µM. H-TPQRPRRRKKRG-OH registered a Ki above 0.1 µM. For the compound H-TPRTRRRKKRG-NH2, the Ki is above 0.1 µM. As to H-TPREAARKKRV-OH, the inhibitory constant (Ki) is above 0.1 µM.

H-TPQRDRRRKKRG-OH: the inhibition constant Ki is above 0.1 µM.

Regarding H-TPQRSRRRKKRG-OH, the inhibition constant Ki is above 0.1 µM.

In turn, H-TPREAAAKKRG-OH returned an inhibition constant Ki above 0.1 µM. Under `C[C@H](NC(=O)[C@H](C)NC(=O)[C@@H]1CCCN1C(=O)[C@@H](N)[C@@H](C)O)C(=O)N[C@@H](C)C(=O)N[C@@H](CCCNC(=N)N)C(=O)N[C@@H](CCCNC(=N)N)C(=O)N[C@@H](CCCCN)C(=O)N[C@@H](CCCCN)C(=O)N[C@@H](CCCNC(=N)N)C(=O)N(C)CC(=O)O` (H-TPAAARRKKR[Sar]-OH) stands above 0.1 µM. The value for H-TPRERRAAKRG-OH was above 0.1 µM. Consider H-TPRARRRKKRI-OH, for which the inhibition constant Ki was found to be 0.03 µM. Under H-AAAERRRKKRG-OH stands above 0.1 µM; under `C[C@H](NC(=O)[C@H](CCCNC(=N)N)NC(=O)[C@H](CCC(N)=O)NC(=O)[C@@H]1CCCN1C(=O)[C@@H](N)[C@@H](C)O)C(=O)N[C@@H](CCCNC(=N)N)C(=O)N[C@@H](CCCNC(=N)N)C(=O)N[C@@H](CCCNC(=N)N)C(=O)N[C@@H](CCCCN)C(=O)N[C@@H](CCCCN)C(=O)N[C@H](CCCCN)C(=O)NCC(=O)O`, above 0.1 µM; under H-TPQRNRRRKKRG-OH, above 0.1 µM. Take H-TPRERARKKRG-OH: the Ki was above 0.1 µM. Under `C[C@@H](O)[C@H](N)C(=O)N1CCC[C@H]1C(=O)N[C@@H](CCCNC(=N)N)C(=O)N[C@H](CCCCN)C(=O)N[C@@H](CCCNC(=N)N)C(=O)N[C@@H](CCCNC(=N)N)C(=O)N[C@@H](CCCNC(=N)N)C(=O)N[C@@H](CCCCN)C(=O)N[C@@H](CCCCN)C(=O)N[C@@H](CCCNC(=N)N)C(=O)NCC(=O)O` stands above 0.1 µM; under H-TPREARRKKRG-NH2, above 0.1 µM; under H-TPREAAAKKRV-OH, above 0.1 µM. The compound H-TPRARRRKKRF-NH2 gave a Ki of 0.038 µM. The value for `C[C@H](NC(=O)[C@H](CCCNC(=N)N)NC(=O)[C@H](CCC(N)=O)NC(=O)[C@@H]1CCCN1C(=O)[C@@H](N)[C@@H](C)O)C(=O)N[C@@H](CCCNC(=N)N)C(=O)N[C@@H](CCCNC(=N)N)C(=O)N[C@@H](CCCNC(=N)N)C(=O)N[C@@H](CCCCN)C(=O)N[C@@H](CCCCN)C(=O)N[C@@H](CCCNC(=N)N)C(=O)N[C@H](CCCCN)C(=O)O` was above 0.1 µM; that for H-TPRERARKKRG-NH2 was above 0.1 µM. Under H-TPRERARKKR-OH stands above 0.1 µM. For the compound H-AARERRRKKRG-OH, the inhibition constant Ki is above 0.1 µM. H-TPRWRRRKKRG-OH gave a Ki above 0.1 µM.

Compound H-TPQRARRRKKRI-OH had an inhibitory constant (Ki) above 0.1 µM.

In turn, `C[C@@H](O)[C@H](N)C(=O)N1CCC[C@H]1C(=O)N[C@@H](CCCN=C(N)N)C(=O)N[C@@H](CCCCN)C(=O)N[C@@H](CCCN=C(N)N)C(=O)N[C@@H](CCCN=C(N)N)C(=O)N[C@@H](CCCN=C(N)N)C(=O)N[C@@H](CCCCN)C(=O)N[C@@H](CCCCN)C(=O)N[C@@H](CCCN=C(N)N)C(=O)NCC(=O)O` yielded a Ki above 0.1 µM. In the case of `C[C@@H](N)C(=O)N1CCC[C@H]1C(=O)N[C@@H](CCCNC(=N)N)C(=O)N[C@@H](CCC(=O)O)C(=O)N[C@@H](CCCNC(=N)N)C(=O)N[C@@H](CCCNC(=N)N)C(=O)N[C@@H](CCCNC(=N)N)C(=O)N[C@@H](CCCCN)C(=O)N[C@@H](CCCCN)C(=O)N[C@@H](CCCNC(=N)N)C(=O)NCC(N)=O`, the inhibitory constant (Ki) is above 0.1 µM. In turn, `C[C@@H](O)[C@H](N)C(=O)N1CCC[C@H]1C(=O)N[C@@H](CCCNC(=N)N)C(=O)N[C@@H](CCC(=O)O)C(=O)N[C@@H](CCCNC(=N)N)C(=O)N[C@@H](CCCNC(=N)N)C(=O)N[C@@H](CCCNC(=N)N)C(=O)N[C@@H](CCCCN)C(=O)N[C@@H](CCCCN)C(=O)N[C@@H](CCCNC(=N)N)C(=O)N(C)CC(=O)O` (H-TPRERRRKKR[Sar]-OH) had a Ki above 0.1 µM. Under `C[C@@H](O)[C@H](N)C(=O)N1CCC[C@H]1C(=O)N[C@@H](CCC(N)=O)C(=O)N[C@@H](CCCNC(=N)N)C(=O)N[C@@H](CS)C(=O)N[C@@H](CCCNC(=N)N)C(=O)N[C@@H](CCCNC(=N)N)C(=O)N[C@@H](CCCNC(=N)N)C(=O)N[C@@H](CCCCN)C(=O)N[C@@H](CCCCN)C(=O)N[C@@H](CCCNC(=N)N)C(=O)NCC(=O)O` stands above 0.1 µM.

H-TPQRHRRRKKRG-OH showed a Ki above 0.1 µM. In turn, H-TPRARRRKKRK-NH2 returned a Ki above 0.1 µM. As for H-TPRERRAKKR-OH, the Ki was above 0.1 µM.

H-TPRIRRRKKRG-OH returned an inhibitory constant (Ki) above 0.1 µM. As to `CCCC[C@H](NC(=O)[C@H](CCCNC(=N)N)NC(=O)[C@H](CCCCN)NC(=O)[C@H](CCCCN)NC(=O)[C@H](CCCNC(=N)N)NC(=O)[C@H](CCCNC(=N)N)NC(=O)[C@H](CCCNC(=N)N)NC(=O)[C@H](C)NC(=O)[C@H](CCCNC(=N)N)NC(=O)[C@@H]1CCCN1C(=O)[C@@H](N)[C@@H](C)O)C(=O)O`, the Ki amounted to 0.081 µM. In other words, the double-digit nanomolar range. Under `C[C@H](NC(=O)[C@H](CCCNC(=N)N)NC(=O)[C@H](CCCNC(=N)N)NC(=O)[C@H](CCC(=O)O)NC(=O)[C@H](CCCNC(=N)N)NC(=O)[C@@H]1CCCN1C(=O)[C@@H](N)[C@@H](C)O)C(=O)N[C@@H](CCCCN)C(=O)N[C@@H](CCCCN)C(=O)N[C@@H](CCCNC(=N)N)C(=O)N(C)CC(=O)O` (H-TPRERRAKKR[Sar]-OH) stands above 0.1 µM.

Consider `CC(C)C[C@H](NC(=O)[C@H](CCCNC(=N)N)NC(=O)[C@H](CCC(N)=O)NC(=O)[C@@H]1CCCN1C(=O)[C@@H](N)[C@@H](C)O)C(=O)N[C@@H](CCCNC(=N)N)C(=O)N[C@@H](CCCNC(=N)N)C(=O)N[C@@H](CCCNC(=N)N)C(=O)N[C@@H](CCCCN)C(=O)N[C@@H](CCCCN)C(=O)N[C@@H](CCCNC(=N)N)C(=O)NCC(=O)O`, for which the Ki is above 0.1 µM. H-TPRMRRRKKRG-OH came in with a Ki above 0.1 µM. As to H-TPRERRRKAAV-OH, the Ki was above 0.1 µM. Under H-GGGGGGTPRARRRKKRT-OH stands 0.066 µM. In turn, H-TPQRVRRRKKRG-OH returned an inhibitory constant (Ki) above 0.1 µM. Under `C[C@@H](O)[C@H](N)C(=O)N1CCC[C@H]1C(=O)N[C@@H](CCCN=C(N)N)C(=O)NC1(C(=O)N[C@@H](CCCN=C(N)N)C(=O)N[C@@H](CCCN=C(N)N)C(=O)N[C@@H](CCCN=C(N)N)C(=O)N[C@@H](CCCCN)C(=O)N[C@@H](CCCCN)C(=O)N[C@@H](CCCN=C(N)N)C(=O)NCC(N)=O)CCCC1` stands above 0.1 µM; under `C[C@H](NC(=O)[C@H](CCCNC(=N)N)NC(=O)[C@H](CCC(N)=O)NC(=O)[C@@H]1CCCN1C(=O)[C@@H](N)[C@@H](C)O)C(=O)N[C@@H](CCCNC(=N)N)C(=O)N[C@@H](CCCNC(=N)N)C(=O)N[C@@H](CCCNC(=N)N)C(=O)N[C@@H](CCCCN)C(=O)N[C@@H](CCCCN)C(=O)N[C@H](CCCNC(=N)N)C(=O)NCC(=O)O`, above 0.1 µM; under H-TPRERAAKKRV-OH, above 0.1 µM. H-TPRARRRKKRV-NH2 yielded a Ki of 0.08 µM.

In the case of H-TARERRRKKRG-NH2, the inhibitory constant (Ki) was above 0.1 µM. The value for H-GAGAGATPRARRRKKRT-OH was 0.047 µM; that for `C[C@H](NC(=O)[C@H](CCCCN)NC(=O)[C@H](CCCCN)NC(=O)[C@H](CCCN=C(N)N)NC(=O)[C@H](CCCN=C(N)N)NC(=O)[C@H](CCCN=C(N)N)NC(=O)[C@H](CCC(=O)O)NC(=O)[C@H](CCCN=C(N)N)NC(=O)[C@@H]1CCCN1C(=O)[C@@H](N)[C@@H](C)O)C(=O)N(C)CC(=O)O` (H-TPRERRRKKA[Sar]-OH) was above 0.1 µM; that for H-TPRARRRKKRS-OH was above 0.1 µM.

H-GGGTPRARRRKKRF-OH returned a Ki of 0.067 µM. In turn, `C[C@@H](O)[C@H](N)C(=O)N1CCC[C@H]1C(=O)N[C@@H](CCC(N)=O)C(=O)N[C@@H](CCCNC(=N)N)C(=O)NC1(C(=O)N[C@@H](CCCNC(=N)N)C(=O)N[C@@H](CCCNC(=N)N)C(=O)N[C@@H](CCCNC(=N)N)C(=O)N[C@@H](CCCCN)C(=O)N[C@@H](CCCCN)C(=O)NC2(C(=O)NCC(=O)O)CCCC2)CCCC1` showed a Ki above 0.1 µM.

With H-TPRSRRRKKRG-NH2, the inhibitory constant (Ki) is above 0.1 µM.
